These results are taken from PubChem BioAssay (NCI).

Test systems include SN12C renal; OVCAR-5 ovarian; HCT-15 colon; HL-60(TB) leukemia; NCI-H522 lung; SK-MEL-28 melanoma; NCI-H226 lung; ACHN renal.
Common to all, as to test: DTP human tumour cell line panel, 48 h

Structures are written as SMILES.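 Protocol summary: plate cells (96-well), add compound at 5 concentrations, incubate 48 h, interpolate endpoints linearly. Here, GI50 denotes the concentration required for 50% inhibition of growth. At the TGI there is no net growth.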

On to `C=C(C=O)CCCC(C)[C@@H]1CCC23CC12CCC1[C@@]2(C)CCC(OC(C)=O)C(C)(C)C2CC(OC2OC(COC(C)=O)C(O)C(O)C2O)[C@]13C` (some centres undefined), for which the total growth inhibition concentration (TGI) (as a rule, the concentration giving total growth inhibition) with SN12C renal was found to be 5.77 µM; with OVCAR-5 ovarian it was 11.8 µM; in the assay on HCT-15 colon, 7.5 µM; with HL-60(TB) leukemia it was 2.04 µM; with NCI-H522 lung it was 1.53 µM; with SK-MEL-28 melanoma it was 1.77 µM. The TGI in the assay with NCI-H226 lung is 12.8 µM; with ACHN renal it was 9.78 µM.

In the case of `Cc1nn(-c2ccccc2)c(-c2ccccc2[N+](=O)[O-])c1CC#N`, the TGI in the assay on SN12C renal, with OVCAR-5 ovarian, in the assay with HCT-15 colon, with HL-60(TB) leukemia, in the assay on NCI-H522 lung and in the assay with SK-MEL-28 melanoma was more than 100 µM throughout. In the assay on ACHN renal, the TGI is more than 100 µM.

`CCOC(=O)c1cc(/C=C/C(C)=C/C(=O)OC)n(C)c1C`: the concentration for total growth inhibition (TGI) with SN12C renal, in the assay on OVCAR-5 ovarian, in the assay on HCT-15 colon, in the assay with HL-60(TB) leukemia, with NCI-H522 lung and in the assay on NCI-H226 lung was more than 100 µM each time. The compound also came in with a concentration for total growth inhibition (TGI) in the assay with ACHN renal of more than 100 µM.

For the compound `O=C1C2Cc3ccccc3CN2C(=O)N1CCN1CCCC1` (centres undefined), the TGI in the assay on SN12C renal, with OVCAR-5 ovarian, with HCT-15 colon, in the assay on HL-60(TB) leukemia, in the assay on NCI-H522 lung and in the assay on SK-MEL-28 melanoma was more than 100 µM throughout. Further, the total growth inhibition concentration (TGI) in the assay on NCI-H226 lung and in the assay on ACHN renal was more than 100 µM throughout.

As for `CCOC(=O)CC1NC(=O)CS1` (centres undefined), the TGI is more than 100 µM in the assay on SN12C renal; more than 100 µM in the assay with OVCAR-5 ovarian; 45.1 µM in the assay with HCT-15 colon; more than 100 µM with HL-60(TB) leukemia; more than 100 µM with SK-MEL-28 melanoma; 48.1 µM with NCI-H226 lung. Further, the TGI with ACHN renal was more than 100 µM.

Take `COC(=O)c1c(-c2ccccc2)sc(-c2cccc3ccccc23)c1C(=O)OC`: the TGI in the assay on SN12C renal, in the assay on OVCAR-5 ovarian, in the assay on HCT-15 colon, with HL-60(TB) leukemia, in the assay on NCI-H522 lung and with SK-MEL-28 melanoma was more than 100 µM each time. Also, the TGI in the assay on NCI-H226 lung and in the assay with ACHN renal was more than 100 µM in each case.

Regarding `O=[N+]([O-])c1ccc2c(c1)[O][Sn]([I])([I])[O]2`, the GI50 (in general, the concentration at which growth is held to half of that of the control) in the assay with SN12C renal is more than 100 µM; in the assay with OVCAR-5 ovarian it was more than 100 µM; in the assay on HCT-15 colon it was 54.4 µM; with HL-60(TB) leukemia it was more than 100 µM; in the assay with NCI-H522 lung it was 61.4 µM; in the assay with SK-MEL-28 melanoma, 69.6 µM. Further, the GI50 in the assay with NCI-H226 lung and in the assay with ACHN renal was more than 100 µM in each case. Besides, the TGI in the assay on SN12C renal, in the assay on OVCAR-5 ovarian, with HCT-15 colon, with HL-60(TB) leukemia, in the assay with NCI-H522 lung and in the assay with SK-MEL-28 melanoma was more than 100 µM throughout. Also, the TGI in the assay with NCI-H226 lung and in the assay on ACHN renal was more than 100 µM in each case.

On to `O=C1CCC(O)=C1O`, for which the total growth inhibition concentration (TGI) in the assay on SN12C renal, in the assay on OVCAR-5 ovarian, in the assay on HCT-15 colon, in the assay on HL-60(TB) leukemia, in the assay on NCI-H522 lung and with SK-MEL-28 melanoma was more than 100 µM throughout. Also, the TGI in the assay with NCI-H226 lung and in the assay on ACHN renal was more than 100 µM in each case.

Turning to `OC12CC/C(=N/OCc3ccccc3)CC1c1ccccc12` (centres undefined), the TGI in the assay on SN12C renal, with OVCAR-5 ovarian, in the assay with HCT-15 colon, in the assay on HL-60(TB) leukemia, in the assay with NCI-H522 lung and with SK-MEL-28 melanoma was more than 100 µM each time. For the same compound, the TGI in the assay with NCI-H226 lung and in the assay with ACHN renal was more than 100 µM throughout.

As for `COC(=O)c1nc(N)[nH]c(=O)c1CCCCCc1c(C(=O)OC)nc(N)[nH]c1=O`, the TGI with SN12C renal, in the assay on OVCAR-5 ovarian, with HCT-15 colon, with HL-60(TB) leukemia, in the assay with NCI-H522 lung and in the assay on SK-MEL-28 melanoma was more than 50 µM in each case. This compound had a TGI with ACHN renal of more than 50 µM.

For the compound `Cc1c2cc[n+](C)cc2c(C)c2c1[nH]c1ccc(O)c(OCC(F)(F)F)c12`, the concentration for total growth inhibition (TGI) in the assay with SN12C renal is 4.11 µM; with OVCAR-5 ovarian it was 30.5 µM; in the assay on HL-60(TB) leukemia it was 13 µM; in the assay on NCI-H522 lung, 3.55 µM; in the assay with SK-MEL-28 melanoma it was 16 µM; in the assay with NCI-H226 lung it was 4.08 µM.

As to `COC(=O)C1=C(CS(=O)c2ccccc2[N+](=O)[O-])ON(C)C1c1ccccc1` (centres undefined), the TGI was 42.6 µM in the assay on SN12C renal; more than 100 µM in the assay on OVCAR-5 ovarian; 76.3 µM in the assay with HCT-15 colon; 38.6 µM in the assay with HL-60(TB) leukemia; 38 µM in the assay with NCI-H522 lung; more than 100 µM in the assay on NCI-H226 lung. In the assay on ACHN renal, this compound came in with a TGI of more than 100 µM.

Turning to `O=c1ccc(=O)c2c(=O)c3ccccc3c(=O)c1=2`, the TGI with SN12C renal is more than 100 µM; with OVCAR-5 ovarian it was more than 100 µM; in the assay on HCT-15 colon it was more than 100 µM; in the assay with HL-60(TB) leukemia it was 70.9 µM; with NCI-H522 lung, more than 100 µM; in the assay on SK-MEL-28 melanoma it was more than 100 µM. This compound came in with a TGI with ACHN renal of more than 100 µM.
